# Laboratory results from patent publication US6203817A (priority 1998, dated 2001).
# Tests used:
# [1] = Critical micelle concentration (CMC) in water; assay type: physicochemical
# Text: According to this embodiment, the salt form is selected by measuring its CMC in water by methods known in the art, for example, by the use of a surface tensiometer. […] The CMC provides a measure of the surface activity of the particular drug salt.
# [2] = system: skin of hairless guinea pigs; test: Urinary excretion kinetics / skin depot of fluoxetine; assay type: in vivo, hairless guinea pig
# Text: (§1) Skin sites on hairless guinea pigs were lightly washed.
# [3] = cited from earlier work
# [4] = system: skin of hairless guinea pigs; test: Paroxetine gels skin irritation at equivalent flux; assay type: in vivo, hairless guinea pig; conditions: FIG. 8
# Text: as §1
# All paroxetine gels contained paroxetine base, 40% ethanol, 35% propylene glycol, water, and 5% HPMC. Placebo gels were identical with water replacing the paroxetine. Paroxetine acetate gels contained paroxetine base, acetic acid, water, and 2% HEC. […] All paroxetine gels contained approximately 28 μCi ^3 H paroxetine per ml.
smiles,measurement,setting,value
CN(C)CCCN1c2ccccc2Sc2ccc(Cl)cc21 [chlorpromazine acetate],CMC,[1],0.02 M
CNCCC(Oc1ccc(C(F)(F)F)cc1)c1ccccc1 (centres unmarked) [fluoxetine acetate],skin depot (urinary excretion),[2]; acidified with excess acetic acid to pH 5,the skin depot is eliminated
same,kinetics of elimination (urinary excretion),"[2]; acidified with excess acetic acid to pH 5, compared with intravenous administration",close to that observed following intravenous administration of the drug
same,skin depot (urinary excretion),"[2]; fluoxetine acetate, pH 6.5",the skin depot is reduced but is still present
same,CMC,[1],0.05 M
"CNCCC(Oc1ccc(C(F)(F)F)cc1)c1ccccc1 (centres unmarked) [fluoxetine base, fluoxetine]",skin depot (urinary excretion),[2]; fluoxetine base,a skin depot is observed
same,pKa,[3],9.7
Fc1ccc([C@@H]2CCNC[C@H]2COc2ccc3c(c2)OCO3)cc1 [paroxetine acetate],irritation vs paroxetine base gels at equivalent flux,[4],reduced
